These results are taken from the OPERA property sets (Mansouri et al. 2018).

The term melting point denotes the temperature, or range, at which the solid turns liquid. What is called boiling point is the temperature of boiling at a given pressure.

With `CC1Cc2ccccc2N1NC(=O)c1ccc(Cl)c(S(N)(=O)=O)c1` (configuration not stated), the melting point worked out at 161 °C.

`Brc1ccccc1-c1ccccc1`: the boiling point stood at 297 °C and the melting point was determined as 1.5 °C. Take `Clc1ccc2oc3c(Cl)c(Cl)c(Cl)c(Cl)c3c2c1Cl`: the log10 Koa was 10.9. `CC(C)NC(=N)NC(=N)Nc1ccc(Cl)cc1` yielded a melting point of 129 °C. As for `O=C(O)C1(O)c2ccccc2-c2ccc(Cl)cc21` (configuration not stated), the melting point turned out to be 152 °C. `COC1=CC(=O)C[C@@H](C)[C@]12Oc1c(Cl)c(OC)cc(OC)c1C2=O`: the melting point turned out to be 220 °C. `CCOC(=O)c1ccccn1` yielded a boiling point of 243 °C and a melting point of 1 °C.

Consider `CCCC(C)C(C)C(C)C` (configuration not stated), for which the boiling point came out at 161 °C. With `Cc1cc(C(C)(C)C)c(O)c(C)c1CC1=NCCN1`, the melting point came to 182 °C. `CCC(O)C(C)(C)C` (configuration not stated): the boiling point was 135 °C and the melting point is -5 °C. On to `O=c1[nH]c(=O)n([C@H]2C[C@H](O)[C@@H](CO)O2)cc1I`, for which the melting point is 263 °C. As to `FC(Cl)=C(Cl)Cl`, the boiling point amounted to 71 °C and the melting point was -109 °C. `CC(C)CCOCc1ccccc1` came in with a boiling point of 237 °C. Regarding `CN(C)CCOCCN(C)C`, the ready biodegradability result is listed as “not readily biodegradable”. Molecule `CCCCCCCCCCCCCC(O)CC` (configuration not stated) had a melting point of 50 °C.

`CC(=O)O[C@]1(C(C)=O)CC[C@H]2[C@@H]3CCC4=CC(=O)CC[C@]4(C)[C@@]3(F)[C@@H](O)C[C@@]21C` returned a melting point of 268 °C. In the case of `c1ccc2c(c1)ccc1[nH]c3ccccc3c12`, the boiling point came out at 448 °C and the melting point came out at 134 °C. `CC` returned a boiling point of -88.6 °C, a log10 Koa of 0.42, a log10 vapour pressure (mmHg) of 4.5 and a melting point of -183 °C. Take `C#CCCCO`: the boiling point is 154 °C. In turn, `ON=Cc1ccncc1` yielded a melting point of 132 °C. As to `Cc1cccc(O)c1[N+](=O)[O-]`, the log10 Henry constant (atm·m³/mol) is -5.51, the log10 vapour pressure (mmHg) is -1.43 and the melting point turned out to be 37 °C. Regarding `COC(=O)Nc1cccc(C)c1`, the ready biodegradability result was “readily biodegradable”.

The molecule `CCCCC(C)S` (configuration not stated) came in with a boiling point of 142 °C and a melting point of -147 °C.

With `CC=C(CC)CC`, the boiling point was 96 °C and the log10 vapour pressure (mmHg) was 1.72. As to `C#CCCCCCCCCCCCCCC`, the boiling point turned out to be 284 °C and the melting point turned out to be 15 °C.

On to `Nc1ccc(O)c2c1C(=O)c1ccccc1C2=O`, for which the log10 vapour pressure (mmHg) was -8.52 and the melting point came out at 216 °C. Molecule `C1=Cc2cccc3cccc1c23` returned a boiling point of 280 °C, a log10 Henry constant (atm·m³/mol) of -3.94, a log10 Koc (L/kg) of 3.75 and a log10 biodegradation half-life (days) of 1.58. The log10 vapour pressure (mmHg) was -2.18, the melting point turned out to be 92.5 °C and the ready biodegradability result was “readily biodegradable”.

Turning to `ClC1OCCOC1Cl` (configuration not stated), the melting point came to 30 °C. For `CCC(C)(Cl)CCl` (configuration not stated), the boiling point stood at 134 °C.

`CC(C)NC(C)C` yielded a boiling point of 83.9 °C, a log10 vapour pressure (mmHg) of 1.9 and a melting point of -61 °C. Turning to `Oc1c(Cl)cc(Cl)c2ccccc12`, the melting point came to 108 °C and the ready biodegradability result is given as “not readily biodegradable”. For `BrCCCCCBr`, the boiling point amounted to 222 °C and the melting point is -39.5 °C. In turn, `CCCCCCC(C)=O` had a boiling point of 172 °C, a log10 Henry constant (atm·m³/mol) of -3.73, a log10 vapour pressure (mmHg) of 0.13 and a melting point of -16 °C. For the same molecule, the ready biodegradability result is recorded as “readily biodegradable”. Regarding `OC1[C@@H](O)[C@H](O)C[C@@H](O)[C@@H]1O` (some centres not stated), the melting point came to 236 °C.

For `CCOC(=S)SSC(=S)OCC`, the melting point turned out to be 30 °C. Same read-out and setting: the figure for `CC(=O)OC(C(=O)Cl)c1ccccc1` (configuration not stated) is 36 °C; for `O=C1C=CC(=O)C1` it is 37 °C. `CC1(C)CCCC(C)(C)N1` had a boiling point of 156 °C. In turn, `Nc1ccc2cc3ccc(N)cc3nc2c1` had a melting point of 285 °C. As for `CC1CO1` (configuration not stated), the boiling point is 35 °C, the log10 vapour pressure (mmHg) stood at 2.73, the melting point was -112 °C and the ready biodegradability entry was “readily biodegradable”. `Oc1cc(Cl)c(Cl)cc1Cl` registered a boiling point of 247 °C, a log10 Koc (L/kg) of 3.36, a log10 vapour pressure (mmHg) of -2.12 and a melting point of 69 °C. The ready biodegradability result is recorded as “not readily biodegradable”. In the case of `Cc1cc(N)ccc1Cl`, the boiling point came out at 241 °C, the melting point amounted to 83.5 °C and the ready biodegradability entry is “not readily biodegradable”. With `C1CCC2NC2C1` (configuration not stated), the boiling point is 150 °C and the melting point came out at 21 °C. `CCCCC(=O)O` showed a boiling point of 186 °C, a log10 Henry constant (atm·m³/mol) of -6.33, a log10 vapour pressure (mmHg) of -0.708 and a melting point of -34 °C. Further, the ready biodegradability entry is “readily biodegradable”. Take `N#CCc1ccccc1[N+](=O)[O-]`: the melting point worked out at 84 °C. Still for that read-out and setting: the figure for `O=C(O)CP(=O)(O)O` is 144 °C; for `C[C@@H]([C@H](O)c1ccccc1)N(C)C` it is 87.5 °C.

As for `O=C1CNC(=O)N1`, the melting point is 220 °C and the ready biodegradability result is “readily biodegradable”. `COC(=O)CS` gave a boiling point of 148 °C and a log10 vapour pressure (mmHg) of 0.477.

`CC(=O)Oc1ccc(C)cc1C` yielded a boiling point of 226 °C.

In the case of `CC(C)(O)C#N`, the boiling point was 171 °C, the log10 vapour pressure (mmHg) is -0.467, the melting point was -19 °C and the ready biodegradability entry is recorded as “readily biodegradable”. `CCCCCCCCCCCCCCCCCCCCCCCCCCCCCCO` returned a melting point of 88 °C. As for `ICI`, the boiling point is 182 °C, the log10 Henry constant (atm·m³/mol) was -3.49, the log10 vapour pressure (mmHg) came to 0.0792 and the melting point came out at 6.1 °C. As for `CCN(CCO)c1ccc(N=Nc2ccc([N+](=O)[O-])cc2)cc1`, the log10 vapour pressure (mmHg) is -13.4 and the melting point came out at 161 °C. As for `CCN(CC)CCOCCO`, the boiling point stood at 222 °C.

`COC(OC)OC`: the boiling point worked out at 104 °C.
